From patent US20250120999A1 (priority 2022, published 2025)
Where “and” joins values, the source holds several entries; their conditions need not be identical. Equal values may be shown once. Marks after values point to notes of the source that are not given here.

Columns and labels:
MPXV A29 protein = assay type: binding, monkeypox virus (MPXV)
MPXV A35 protein [1] = assay type: binding, monkeypox virus (MPXV)
MPXV A29 [2] = assay type: binding, monkeypox virus (MPXV)
MPXV A29 [3] = assay type: binding, monkeypox virus (MPXV); remark: listed apart in the source
MPXV A35 protein [4] = assay type: binding, monkeypox virus (MPXV); remark: listed apart in the source
SARS-CoV-2 wild-type = details: cited from earlier work
[5] = system: SARS-CoV-2 Delta (B.1.617.2); details: cited from earlier work
MPXV L1R = assay type: binding, monkeypox virus (MPXV)

Substance	Normalized A29 protein binding (%) (MPXV A29 protein)	ability to inhibit A29-surface-immobilized heparin interaction (in words) (MPXV A29 protein)	inhibition of MPXV A29 binding to surface-immobilized heparin (MPXV A29 protein)	Normalized A35 protein binding (%) (MPXV A35 protein [1])	ability to inhibit A35-surface-immobilized heparin interaction (in words) (MPXV A35 protein [1])	inhibition of MPXV A35 binding to surface-immobilized heparin (MPXV A35 protein [1])	inhibition of MPXV A29 binding to heparin surface (in words) (MPXV A29 [3])	other results
[→3)-α-Fuc2,4S-(1→3)-αFuc2S-(1→3)-α-Fuc2S-(1→3)-α-Fuc4S-(1→]n [LvSF]	23.6* %	showed the ability to inhibit	76.4%	16.9* %	showed the ability to inhibit	83.1%	–	–
chondroitin-4,6-sulfate [CSE]	–	–	–	–	–	–	–	ka (MPXV A29 [2]): 4858 M⁻¹ s⁻¹; kd (MPXV A29 [2]): 1.5 × 10^−3 (±4.7 × 10^−5) s^−1
chondroitin-4-sulfate [CSA]	–	–	–	–	–	–	–	ka (MPXV A29 [2]): 3730 M⁻¹ s⁻¹; kd (MPXV A29 [2]): 3.2 × 10^−3 (±5.4 × 10^−5) s^−1
pentosan polysulfate [PPS]	–	–	–	–	–	–	strongest inhibition	inhibition of MPXV A29 binding to surface-immobilized heparin (MPXV A29 [3]): 62%
chondroitin sulfate [CS]	–	–	–	–	–	–	–	binding of GAG chip to MPXV A35 protein (in words) (MPXV A35 protein [4]): neither CS nor DS showed binding
6-O-desulfated heparin [6-desulfated heparin]	–	–	–	–	–	–	weaker inhibition	–
N-desulfated heparin	–	–	–	–	–	–	weaker inhibition	–
2-O-desulfated IdoA heparin [2-desulfated heparin]	–	–	–	–	–	–	weaker inhibition	–
[→3)-α-Fuc2,4S-(1→3)-α-Fuc2S-(1→3)-α-Fuc2S-(1→3)-α-Fuc-(1→]n [IbSF]	5.0** %	showed the ability to inhibit	95% and 92.4%	24.3* %	showed the ability to inhibit	75.8% and 77.4%	–	inhibitory activity against SARS-CoV-2 wild-type (in words) (SARS-CoV-2 wild-type): showed inhibitory activity; inhibitory activity against SARS-CoV-2 Delta (in words) [5]: showed inhibitory activity
[→3)-β-GalNAc4,6S-(1→4)-β-GlcA-[(3→1)Y]-(1→]n, where Y=αFuc2,4S (45%), α-Fuc3,4S (35%), or α-Fuc4S (20%) [HfFucCS]	13.9* %	showed the ability to inhibit	–	23.0* %	showed the ability to inhibit	–	–	–
[→3)-α-GalNAcX(1→4)-β-GlcA-[(3→1)Y]-(1→]n, where X=4S (80%), 6S (10%), or non-sulfated (10%), and Y=−Fuc2,4S (40%), αFuc2,4S-(1→4)-α-Fuc (30%), or α-Fuc4S (30%) [PpFucCS]	13.0* %	showed the ability to inhibit	87%	19.0* %	showed the ability to inhibit	89%	–	–
heparin	43.3* %	–	60%	27.7* %	–	72%	–	kd (MPXV A29 [2]): 7.1 × 10^−3 (±5.0 × 10^−5) s^−1; Kd (MPXV A29 [2]; read-out: KD heparin-A29 interaction): 250 nM; binding between MPXV L1R protein and heparin (in words) (MPXV L1R): essentially no binding; ka (MPXV A35 protein [4]): 1.8 × 10^3 M^−1S^−1; Kd (MPXV A35 protein [4]; read-out: KD heparin-A35 interaction): 220 nM; inhibition of MPXV A29 binding to surface-immobilized heparin (MPXV A29 [3]): 30%
dermatan sulfate [DS]	–	–	–	–	–	–	–	ka (MPXV A29 [2]): 4487 M⁻¹ s⁻¹; kd (MPXV A29 [2]): 2.8 × 10^−3 (±2.6 × 10^−5) s^−1; binding of GAG chip to MPXV A35 protein (in words) (MPXV A35 protein [4]): neither CS nor DS showed binding
[→3)-α-Fuc2,4S-(1→3)-α-Fuc-(1→3)-α-Fuc2S-(1→3)-α-Fuc2S-(1→]n [HfSF]	8.5** %	showed the ability to inhibit	–	23.9* %	showed the ability to inhibit	–	–	–
mucopolysaccharide polysulfate [MPS]	–	–	–	–	–	–	strongest inhibition	inhibition of MPXV A29 binding to surface-immobilized heparin (MPXV A29 [3]): 69%
[→3)-β-GalNAc4,6S-(1→4)β-GlcA-[(3→1)Y]-(1→]n, where Y=α-Fuc2,4S (96%) or α-Fuc4S (4%) [IbFucCS]	7.6* %	showed the ability to inhibit	91.5% and 86.1%	20.1* %	showed the ability to inhibit	79.9% and 77%	–	inhibitory activity against SARS-CoV-2 wild-type (in words) (SARS-CoV-2 wild-type): showed inhibitory activity; inhibitory activity against SARS-CoV-2 Delta (in words) [5]: showed inhibitory activity
